Source: patent publication US5254533A, “Elfamycin” (Rhone-Poulenc Rorer S.A., priority 1990, dated 1993)

What was measured:
[1] = Use as a growth factor in weaned piglets (Example 5); format: in vivo, weaned Large-White Belgian Landrace crossed piglets; details: for Weight gain / Consumption / Intermediate Weight / Initial weight / Index of consumption: 40 ppm in feed; for Initial weight: start of period 14-28 days; for Index of consumption: consumption/weight gain ratio
[2] = Use as a growth factor in piglets (Example 6); format: in vivo, weaned Large-White Belgian Landrace crossed piglets; details: 40 ppm in feed; for Final weight: control 24.7
From the text: 130 weaned Large-White Belgian Landrace crossed piglets were used. The experiment began 2 weeks after weaning of the animals, i.e. at a mean age of 42 days.
The animals received the experimental feed ad libitum in the form of granules 2.5 mm in diameter.
The animals were weighed at the beginning, middle and end of the experiment. The consumptions were noted every week.
Tables 7, 8 and 9 respectively show the percentage composition and the characteristics of the diets, the percentage composition of the CMV and the percentage composition of the premixes.
The results are shown in Table 10 for the period 0-14 days, Table 11 for the period 14-28 days and Table 12 for the period 0-28 days.

[3] = Table 4, 0-14 days, control 15.3
[4] = Table 5, 14-28 days, control 23.1
[5] = Table 6, 0-28 days, control 23.1

| Molecule | Weight gain ([1]; 0-14 days, control 329) [g/day] | Consumption ([1]; 0-14 days, control 614) [g/day] | Weight gain ([1]; 0-28 days, control 445) [g/day] | Consumption ([1]; 0-28 days, control 822) [g/day] | Weight gain ([1]; 14-28 days, control 560) [g/day] | Consumption ([1]; 14-28 days, control 1031) [g/day] | Intermediate Weight [1, 3] [kg] | Intermediate Weight [1, 4] [kg] | Intermediate Weight [1, 5] [kg] | Initial weight ([1]; control 15.3) [kg] | Index of consumption ([1]; 0-14 days, control 1.88) | Index of consumption ([1]; 0-28 days, control 1.85) | Index of consumption ([1]; 14-28 days, control 1.86) | also measured |
| --- | --- | --- | --- | --- | --- | --- | --- | --- | --- | --- | --- | --- | --- | --- |
| CC[C@H]1OC(=O)C[C@@H](O)[C@H](C)[C@@H](O[C@@H]2O[C@H](C)[C@@H](O[C@H]3C[C@@](C)(O)[C@@H](O)[C@H](C)O3)[C@H](N(C)C)[C@H]2O)[C@@H](CC=O)C[C@@H](C)C(=O)/C=C/C(C)=C/[C@@H]1CO[C@@H]1O[C@H](C)[C@@H](O)[C@@H](OC)[C@H]1OC [tylosin, reference compound] | 351 | 619 | 470 | 826 | 588 | 1033 | 15.6 | 23.8 | 23.8 | 15.6 | 1.79 | 1.76 | 1.76 |  |
| spiramycin embonate [reference compound] | 393 | 668 | 518 | 908 | 647 | 1147 | 16.3 | 25.4 | 25.4 | 16.3 | 1.72 | 1.75 | 1.79 | effect on consumption (in words) ([1]; first period 0-14 days): increase in consumption; effect on consumption (in words) ([1]; overall period 0-28 days): significantly increased; effect on growth (in words) ([1]; overall period 0-28 days, relative to basic diet): significantly increased; effect on growth (in words) ([1]; second period 14-28 days): significantly improved; Index of consumption ([2]; 0-14 days, control 1.76): 1.70; Weight gain ([2]; 0-14 days, control 368): 423 g/day; Consumption ([2]; 0-14 days, control 645): 715 g/day; Index of consumption ([2]; 0-28 days, control 1.80): 1.73; Weight gain ([2]; 0-28 days, control 474): 532 g/day; Consumption ([2]; 0-28 days, control 852): 923 g/day; Index of consumption ([2]; 14-28 days, control 1.84): 1.77; Weight gain ([2]; 14-28 days, control 579): 640 g/day; Consumption ([2]; 14-28 days, control 1059): 1130 g/day; Final weight ([2]; Table 11, 14-28 days): 26.3 kg; Final weight ([2]; Table 12, 0-28 days): 26.3 kg |
